The values that follow are results of earlier work, collected in patent publication US20060204445A1, “Cell scaffold matrices with image contrast agents” (priority 2005, published 2006).

The conditions of this data set: in vivo.

Regarding heparin, the “normal half-life of heparin” value is 1 to 2 h.
